Assay: gradient 5% acetonitrile 3 min, to 50% in 2 min, to 85% in 15 min, held 3 min, 100 µL/min
Details: column: Zorbax Extend-C18 2.1 x 50 mm; eluents: water / acetonitrile, 0.1% formic acid
Summary of the method: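 Using water and acetonitrile that each contained 0.1% formic acid, mixtures of ~100 pure standards were separated at 100 μL/min on a Zorbax Extend-C18 column (2.1 × 50 mm, 1.8 μm). The HPLC fed a quadrupole time-of-flight mass spectrometer working in positive and negative ionization mode, with dead and dwell volumes of 40 μL and 900 μL. Data were acquired over 3 months. Retention time was read from computationally picked adduct peaks after manual inspection of each.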

Row | SMILES | RP-LC retention time [s]
1 | CC(=O)N(C1CC1)C1CCOC2(CCN(C(=O)c3sc(C)nc3C)CC2)C1 (stereo not drawn) | 643
2 | CCc1noc(-c2cnc3nc(C)ccc3c2Nc2ccccc2C)n1 | 818
3 | COC(=O)c1c(NCc2cccc(OC)c2)c2cccc(Cl)c2[nH]c1=O | 803
4 | CS(=O)(=O)N1CCN(CCNC(=O)Nc2cccc(C(F)(F)F)c2)CC1 | 576
5 | CC1=NS(=O)(=O)N(C)C=C1C(=O)OCc1ccccc1 | 882
6 | COc1ccc(CNC(=O)Cn2nc3c(N4CCSCC4)nccn3c2=O)cc1 | 762
7 | CCc1nnc(-c2ccc3ccn(CC(=O)N4CCN(c5ccc(F)cc5)CC4)c3c2)o1 | 878
8 | C[C@H]1CN(C(=O)Cc2ccccc2F)C[C@@H]1c1nc(-c2ccccc2)no1 | 1020
9 | COc1ccc(OC)c(S(=O)(=O)N2CCC3(C2)C(=O)N(C)c2ccccc23)c1 (stereo not drawn) | 853
10 | Cc1nc(NC(=O)C2CCCN(c3ccc(-n4cccn4)nn3)C2)sc1C (stereo not drawn) | 699
11 | CCCNC(=O)C1CCCN(c2nc3ncn(CC(=O)Nc4ccc(F)cc4)c(=O)c3s2)C1 (stereo not drawn) | 692
12 | CSc1ccc(CNC(=O)CN2C(=O)C3CCCCN3c3ccc(C(=O)N4CCCC4)cc32)cc1 (stereo not drawn) | 850
13 | CCc1ccccc1S(=O)(=O)N1CCC(n2cnnc2CC)CC1 | 595
14 | Cc1nc2cc(-c3noc(-c4cccc(F)c4)n3)ccc2n(C)c1=O | 1020
15 | CCN(CC)S(=O)(=O)c1ccc2nc(Cl)cnc2c1 | 950
16 | Cc1ccc(-c2cn3c(CC(=O)N4CCCc5ccccc54)csc3n2)cc1C | 956
17 | CCn1c(=O)c2ccn(CC(=O)NCc3cc(OC)ccc3OC)c2n(CC)c1=O | 811
18 | O=C(Nc1cccc(-c2nnc3n2CCCC3)c1)c1ccc2c(c1)OCO2 | 679
19 | Cc1ccc2oc(CN3CCN(C(=O)Nc4ccccc4F)CC3)nc2c1 | 699
20 | Cn1ccc2ccn(CC(=O)NCc3ccccc3Br)c(=O)c21 | 778
21 | COC(=O)c1ncn2c1C(=O)N(Cc1ccccc1Cl)C(C)(C(=O)NC1CCCCC1)C2 (stereo not drawn) | 804
22 | Cc1ccc(CNC(=O)C2c3ccccc3CC(=O)N2C)o1 (stereo not drawn) | 693

Row | SMILES | RP-LC retention time [s]
23 | COc1ccc2[nH]c(C(=O)N[C@@H](C)C(=O)NCCc3c[nH]c4ccccc34)cc2c1OC | 769
24 | O=C(Cc1ccc(F)cc1)N1CCN(Cc2nc(C3CC3)cs2)CC1 | 610
25 | O=C(CSc1ccc(N2CCCC(C(=O)NC3CC3)C2)nn1)NCc1ccccc1 (stereo not drawn) | 603
26 | CCc1cc(N2CCN(C(=O)COc3ccc(Cl)cc3)CC2)nc2nncn12 | 651
27 | CCOc1ccc(-c2cn3ccn(-c4ccc(OC)c(OC)c4)c(=O)c3n2)cc1 | 781
28 | CCn1nnc2c(Nc3cccc(C(C)=O)c3)ncnc21 | 686
29 | COc1ccc(NC(=O)c2c(O)c3cccnc3n(-c3cccc(F)c3)c2=O)cc1F | 1210
30 | COc1ccc(Cl)cc1C(=O)Nc1cc(-c2cccnc2)no1 | 902
31 | COc1ccccc1-c1noc(CN2C(=O)C(C)Oc3ccccc32)n1 (stereo not drawn) | 944
32 | Cn1cc(S(=O)(=O)Nc2ccc(F)cc2Cl)c2cccnc21 | 814
33 | COc1ccc(Cl)cc1NC(=O)CSc1nc2nc(C)cc(C)n2n1 | 856
34 | CN(C)C[C@@H]1CN(C2CCOCC2)C[C@H]1NC(=O)C1(c2ccccc2)CC1 | 556
35 | CCCn1c(=O)sc2cc(S(=O)(=O)N3CCC(C(=O)NCc4ccc(C)o4)CC3)ccc21 | 960
36 | COc1ccccc1NC(=O)Cn1cc(C(=O)N2CCCC2)c(=O)c2ccc(C)nc21 | 705
37 | CCn1c(SC)nnc1-c1nn(C)c2c1CN(C(=O)c1ccccc1)CC2 | 740
38 | Cc1cc(SCC(=O)Nc2ccc(Cl)cc2C(F)(F)F)nc(-c2cccnc2)n1 | 785
39 | O=C(C1=CN(c2ccc3c(c2)OCCO3)c2cc(Cl)ccc2S1(=O)=O)N1CCCCC1 | 873
40 | COc1ccc(NC(=O)Cn2cccc(-c3nc(-c4ccc(OC)c(OC)c4)no3)c2=O)cc1Cl | 814
41 | CC(=O)N1CCC(C(=O)Nc2ccc(OCc3nnc(-c4ccc(Cl)cc4)o3)cc2)CC1 | 758
42 | O=C(NC1CCN(c2cc(-c3ccc(F)cc3)[nH]n2)C1)c1cccc(OC(F)(F)F)c1 (stereo not drawn) | 840
43 | CCN1C(=O)C2(CCN(S(=O)(=O)c3ccc4c(c3)CCCC4)CC2)c2ccccc21 | 1220
44 | Cc1cnc(-c2ccccc2)n1CCNS(=O)(=O)N(C)C | 572

Row | SMILES | RP-LC retention time [s]
45 | COC(=O)c1c(C)[nH]c(C(=O)N2CCC(CC(=O)NCCc3c[nH]c4ccccc34)CC2)c1C | 722
46 | O=C(N/N=C/c1coc2ccccc2c1=O)c1cccnc1 | 663
47 | Cc1nc2c3ccccc3nc(NNC(=O)CCC(=O)N3CCN(c4ccccn4)CC3)n2n1 | 550
48 | Cc1ccc(C)c(N2CCN(S(=O)(=O)c3c(C)sc(C)c3-c3cc(C)[nH]n3)CC2)c1 | 1150
49 | NC(=O)C1CCN(C(=O)Cc2cc(-c3cccs3)on2)CC1 | 594
50 | Cc1cccc(NC(=O)Cn2ncn3c(C)c(C(=O)NCC(C)C)c(C)c3c2=O)c1 | 594
51 | O=C(c1ccsc1)N1CCCn2cc(-c3ccccc3)nc21 | 640
52 | CCC(C)(C)NS(=O)(=O)c1ccc(-c2nc(C(C)C)cs2)s1 | 1240
53 | CCOC(=O)c1ccc(NC(=O)CSc2ccc3nnc(-c4ccccn4)n3n2)cc1 | 656
54 | Clc1ccc(Sc2c(-c3ccccc3)nc3ncccn23)cc1 | 1030
55 | COc1ccc(-c2noc(C3CCCN3C(=O)Nc3ccc(C)cc3C)n2)cc1 (stereo not drawn) | 925
56 | COC(=O)c1ccc(NC(=O)Cn2cnc3nc(N4CCCC4)ncc3c2=O)cc1 | 690
57 | Cc1ccc(NC(=O)Nc2ccc3nc(N4CCN(C)CC4)cc(C)c3c2)cc1F | 614
58 | Cc1ccn2cc(-c3ccc(NS(=O)(=O)c4cc(Cl)ccc4Cl)cc3)nc2n1 | 691
59 | O=C(C1CCN(c2cncnc2N2CCCC2)CC1)N1CCN(c2ccccn2)CC1 | 552
60 | Cc1ccc2nc(CNC(=O)Cn3nc(C(=O)N4CCCC4)c4ccccc43)[nH]c2c1 | 600
61 | CCOc1ccccc1-n1ccn(Cc2nc(-c3ccccc3)no2)c(=O)c1=O | 848
62 | CCc1nc2cc3c(cc2n1CC(=O)Nc1ccc(C)cc1)OCCO3 | 678
63 | CCn1c(CN(C)C(=O)Nc2ccc(Br)cc2F)nc2cc(C(=O)N(C)C)ccc21 | 650
64 | CCOC(=O)c1nc(Nc2ccc(F)cc2Cl)c2ccccc2n1 | 890
65 | CCOCCOC(=O)C1=C(C)NC2=C(C(=O)CCC2)C1c1cccc(OC)c1OC (stereo not drawn) | 732
66 | Cc1ccc(N2CCC(NC(=O)Nc3ccc(C)c(C)c3)C2=O)cc1 (stereo not drawn) | 902

Row | SMILES | RP-LC retention time [s]
67 | CCc1sc(NC(=O)CS(=O)(=O)c2ccc(C)cc2)nc1-c1ccccc1 | 1040
68 | O=C(Nc1ccc2c(c1)N(C(=O)C1CCCO1)CC2)c1c(F)cccc1Cl (stereo not drawn) | 731
69 | CCOC(=O)c1[nH]c(C)c(CCC(=O)N2CCC(C(=O)NCc3ccc(OC)cc3OC)CC2)c1C | 799
70 | Cc1c(Cl)cccc1NC(=O)C(C)n1cnc2nc3c(cc2c1=O)CCCC3 (stereo not drawn) | 805
71 | Cc1cc(-c2nnc(-c3ccccc3)o2)c(C)n1CC(=O)N1CCN(c2ccccn2)CC1 | 649
72 | CCn1nccc1C(=O)N1CCC(n2c(-c3ccsc3)nc3cccnc32)C1 (stereo not drawn) | 643
73 | COc1cccc(Cn2cc(C(=O)O)nn2)c1 | 635
74 | Cc1ccc(S(=O)(=O)N2CCC(n3cnc4c(C)cccc4c3=O)CC2)cc1 | 929
75 | Cc1ccc(-c2nnc(-c3ccccc3Cl)o2)cc1S(=O)(=O)N(C)C | 999
76 | COCCN1C(=O)c2ccccc2C(C(=O)Nc2ccccc2OC)C12CCCC2 (stereo not drawn) | 905
77 | Cc1cc(-c2csc(S(=O)(=O)NCCCN3CCN(Cc4ccccc4)CC3)c2)on1 | 650
78 | CCCn1cnc2cc(CNC(=O)Cc3ccsc3)ccc21 | 619
79 | CCN1CCn2cc(S(=O)(=O)NCc3ccc(C)c(C)c3)cc2C1=O | 761
80 | Cc1noc(C2CN(C(=O)Nc3cccc(Cl)c3F)CC23CCOCC3)n1 (stereo not drawn) | 783
81 | Cc1ccc(NC(=O)N2CCCC(C)(C(=O)NCc3ccccc3)C2)cc1F (stereo not drawn) | 945
82 | Cc1cccc(NC(=O)C2CCCN(S(=O)(=O)c3cn(C(C)C)cn3)C2)c1 (stereo not drawn) | 803
83 | COc1ccc(NC(=O)N(C)CCc2noc(COc3ccc(F)cc3)n2)cc1OC | 801
84 | Cc1ccc(C(=O)NC2(c3nc(C)no3)CCCCC2)cc1 | 886
85 | CCCCCC(CN1CCOCC1)C(=O)/C=C/c1ccccc1 (stereo not drawn) | 748
86 | CCc1ccc(OCc2nc(C)c(C(=O)Nc3nc(-c4ccccc4OC)cs3)s2)cc1 | 1310
87 | Cc1cccc(C)c1NC(=O)Cn1c(=O)nc(N2CCC(C)CC2)c2ccccc21 | 819
88 | Cc1oc(C2CCN(S(=O)(=O)Cc3ccccc3)CC2)nc1C(=O)N1CCCC1 | 861
